According to patent US6462055B2, “Alpha-methylbenzyl-containing thiourea inhibitors of herpes viruses containing a phenylenediamine group” (Wyeth, priority 1998, dated 2002):
Values after ≈ are worked out from the molar mass of the structure shown.

Legend:
[1] = system: VZV strain Ellen; assay: VZV Antiviral (ELISA) Assay in human foreskin fibroblast cells; type: cell-based, varicella-zoster virus; details: for IC50 / inhibition at 10 µg/mL: Human alphaherpesvirus 3, Fibroblast; for IC50: read-out: IC50 (ug/ml) VZV; for inhibition at 10 µg/mL: read-out: % inhibition 10 ug/ml VZV, 10 ug/ml
Method in brief: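 HFF cells infected overnight with VZV Ellen at MOI <0.1, mixed with uninfected cells, were seeded with compound and grown 3 days at 37° C in DMEM/2% FBS. Viral glycoprotein II was detected by ELISA with β-galactosidase-linked secondary; IC50 from fluorescence versus no-compound wells.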

[2] = system: HCMV recombinant mutant virus (RV145); assay: microbe, parasite or virus in culture; type: cell-based, human cytomegalovirus; details: for IC50: Human betaherpesvirus 5, read-out: IC50 ug/ml HCMV, HCMV
Method in brief: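 Read-out is beta-glucuronidase activity in cell lysates 96 h after infection, measured colorimetrically or fluorometrically. Reporter virus RV145 expresses the enzyme under a viral promoter in human foreskin fibroblasts treated with inhibitor.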

[3] = system: HSV-1; assay: HSV Antiviral (ELISA) Assay in Vero cells; type: cell-based, herpes simplex virus type 1; details: HSV-1, Vero cells; for IC50: Human alphaherpesvirus 1, read-out: IC50 (ug/ml) HSV
Method in brief: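 Viral replication was quantified by cell-fixed ELISA for HSV glycoprotein D, using a β-galactosidase reporter and fluorogenic umbelliferyl substrate, about 24 h after HSV-1 infection (MOI 0.006) of Vero cells. Compounds, at several concentrations, were added 30 min pre-infection. IC50 was derived from fluorescence relative to the compound-free signal.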

SMILES | IC50 [1] [µg/mL] | IC50 [2] [µg/mL] | IC50 [3] [µg/mL] | IC50 (ug/ml) VZV [1] [µg/mL] | % inhibition 10 ug/ml VZV [1] [%] | IC50 ug/ml HCMV [2] [µg/mL] | IC50 (ug/ml) HSV [3] [µg/mL] | inhibition at 10 µg/mL [1] [%]
CC(NC(=S)Nc1ccc(NC(=O)c2nccc3ccccc23)cc1)c1cc2ccccc2o1 (stereo not shown) [Example 977, Isoquinoline-1-carboxylic acid {4-[3-(1-benzofuran-2-yl-ethyl)-thioureido]-phenyl}-amide] | 0.05 (≈ 0.107 µM) | > 10 | > 10 | – | – | – | – | –
Cc1ccc(NC(=S)Nc2ccc(NC(=O)c3ccccc3C)cc2)cc1Cl [Example 234] | – | – | – | >10 | 68 | 1 (≈ 2.44 µM) | 0.2 (≈ 0.488 µM) | –
O=C(Nc1ccc(NC(=S)Nc2ccc(Cl)cc2O)cc1)c1ccccc1F [Example 1001, N-{4-[3-(4-Chloro-2-hydroxy-phenyl)-thioureido]-phenyl}-2-fluoro-benzamide] | 3.6 (≈ 8.66 µM) | 2.6 (≈ 6.25 µM) | 4.3 (≈ 10.3 µM) | – | – | – | – | –
CC(NC(=S)Nc1ccc(NC(=O)c2ccccc2F)cc1)c1ccccc1F (stereo not shown) [Example 778] | 3 (≈ 7.29 µM) | 0.8 (≈ 1.94 µM) | > 10 | – | – | – | – | –
CC(NC(=S)Nc1ccc(NC(=O)c2ccccc2F)cc1)c1ccc(N(C)C)cc1 (stereo not shown) [Example 793] | – | – | – | 3.1 (≈ 7.1 µM) | – | 3.2 (≈ 7.33 µM) | 9 (≈ 20.6 µM) | –
COc1cc(OC)c(NC(=S)Nc2ccc(NC(=O)c3cccc(C(=O)O)c3)cc2)cc1Cl [Example 209] | – | – | – | >10 | 22 | >50 | >50 | –
COc1cc(OC)c(NC(=S)Nc2ccc(NC(=O)c3cccc(F)c3F)cc2)cc1Cl [Example 186] | – | – | – | >10 | 52 | >10 | 0.2 (≈ 0.418 µM) | –
CC(NC(=S)Nc1ccc(NC(=O)c2ccccc2F)cc1)c1ccc2ccccc2c1 (stereo not shown) [Example 799] | – | – | – | >7.5 | – | 1.7 (≈ 3.83 µM) | >10 | –
COc1cc(OC)c(NC(=S)Nc2ccc(NC(=O)c3cccc(OCC(=O)O)c3)cc2)cc1Cl [Example 222] | – | – | – | >10 | 17 | >50 | >50 | –
Nc1cc(Cl)cc(NC(=S)Nc2ccc(NC(=O)c3ccccc3F)cc2)c1 [Example 442] | – | – | – | 8 (≈ 19.3 µM) | 81 | 2 (≈ 4.82 µM) | 1 (≈ 2.41 µM) | –
COc1cc(OC)c(NC(=S)Nc2ccc(NC(=O)c3ccc(F)cc3F)cc2)cc1Cl [Example 188] | – | – | – | >10 | 22 | >10 | 1.2 (≈ 2.51 µM) | –
COc1ccc(NC(=S)Nc2ccc(NC(=O)c3ccccc3F)cc2)cc1C(F)(F)F [Example 998, 2-Fluoro-N-{4-[3-(4-methoxy-3-trifluoromethyl-phenyl)-thioureido]-phenyl}-benzamide] | 5 (≈ 10.8 µM) | > 10 | 3 (≈ 6.47 µM) | – | – | – | – | –
CN1CCC(N(C)c2ccc(NC(=S)Nc3ccc(NC(=O)c4c(F)cccc4F)cc3)cc2Cl)C1 (stereo not shown) [Example 349] | – | – | – | 4 (≈ 7.55 µM) | 110 | 1.2 (≈ 2.26 µM) | 5 (≈ 9.43 µM) | –
O=C(O)c1cccc(NC(=S)Nc2ccc(NC(=O)c3ccco3)cc2)c1 [Example 964, 3-(3-{4-[(Furan-2-carbonyl)-amino]-phenyl}-thioureido)-benzoic acid] | > 10 | > 10 | > 10 | – | – | – | – | 0
COc1cc(OC)c(NC(=S)Nc2ccc(NC(=O)c3ccc(F)cc3)cc2)cc1Cl [Example 116] | – | – | – | >10 | 0 | 3 (≈ 6.52 µM) | 2 (≈ 4.35 µM) | –
CSc1ccc(NC(=S)Nc2ccc(NC(=O)c3ccccc3F)cc2Cl)cc1Cl [Example 460] | – | – | – | >10 | 50 | 2 (≈ 4.16 µM) | 0.09 (≈ 0.187 µM) | –
COc1cc(OC)c(NC(=S)Nc2ccc(NC(=O)c3ccccc3F)c(Cl)c2)cc1Cl [Example 278] | – | – | – | >10 | 15 | >10 | >10 | –

SMILES | IC50 [1] [µg/mL] | IC50 [2] [µg/mL] | IC50 [3] [µg/mL] | IC50 (ug/ml) VZV [1] [µg/mL] | % inhibition 10 ug/ml VZV [1] [%] | IC50 ug/ml HCMV [2] [µg/mL] | IC50 (ug/ml) HSV [3] [µg/mL] | inhibition at 10 µg/mL [1] [%]
CC(NC(=S)Nc1ccc(NC(=O)c2ccc(O)cc2)cc1)c1ccc(F)cc1 (stereo not shown) [Example 760] | > 10 | > 10 | > 10 | – | – | – | – | –
CN(C)c1cccc(NC(=S)Nc2ccc(NC(=O)c3ccccc3F)cc2)c1 [Example 454] | – | – | – | >10 | 55 | 4 (≈ 9.79 µM) | 1.5 (≈ 3.67 µM) | –
O=C(Nc1ccc(NC(=S)NCCCc2ccccc2)cc1)c1ccccc1F [Example 628] | – | – | – | 10 (≈ 24.5 µM) | – | >10 | >10 | –
CC(C)C(NC(=S)Nc1ccc(NC(=O)c2ccccc2F)cc1)c1ccc(F)cc1 (stereo not shown) [Example 790] | – | – | – | 2.5 (≈ 5.69 µM) | – | 1.5 (≈ 3.41 µM) | >10 | –
O=C(Nc1ccc(NC(=S)Nc2ccc(OC(F)(F)F)c(Br)c2)cc1)c1ccccc1F [Example 549] | – | – | – | >10 | – | >10 | >10 | –
COc1ccc(C(C)NC(=S)Nc2ccc(NC(=O)c3ccccc3F)cc2)cc1 (stereo not shown) [Example 777] | – | – | – | >7.5 | – | 1.7 (≈ 4.01 µM) | >10 | –
O=C(Nc1ccc(NC(=S)Nc2cc(Cl)c(Cl)c(Cl)c2)cc1)c1ccccc1F [Example 937, 2-Fluoro-N-{4-[3-(3,4,5-trichloro-phenyl)-thioureido]-phenyl}-benzamide] | > 10 | 2 (≈ 4.27 µM) | 0.7 (≈ 1.49 µM) | – | – | – | – | 25
Cc1ccc(C(C)NC(=S)Nc2ccc(NC(=O)c3ccccc3F)cc2)cc1 (stereo not shown) [Example 782] | – | – | – | 3 (≈ 7.36 µM) | – | 0.9 (≈ 2.21 µM) | >10 | –
CCOC(=O)COc1cccc(C(=O)Nc2ccc(NC(=S)Nc3cc(Cl)c(OC)cc3OC)cc2)c1 [Example 221] | – | – | – | >10 | 17 | >10 | >10 | –
COc1cc(OC)c(NC(=S)Nc2ccc(NC(=O)c3cccc4ccccc34)cc2)cc1Cl [Example 157] | – | – | – | >10 | 32 | 8 (≈ 16.3 µM) | 0.9 (≈ 1.83 µM) | –
COc1cc(OC)c(NC(=S)Nc2ccc(NC(=O)c3ccccc3NC(C)=O)cc2)cc1Cl [Example 189] | – | – | – | >10 | 59 | >10 | 2.5 (≈ 5.01 µM) | –
O=C(Nc1ccc(NC(=S)NCCc2ccc(F)cc2)cc1)c1ccccc1F [Example 553] | 7 (≈ 17 µM) | > 0.5 | > 10 | – | – | – | – | –
CN(C)c1ccc(NC(=S)Nc2ccc(NC(=O)c3c(F)cccc3F)cc2)cc1Cl [Example 348] | – | – | – | 8 (≈ 17.4 µM) | 95 | 0.8 (≈ 1.74 µM) | 4 (≈ 8.68 µM) | –
CC(O)c1cccc(NC(=S)Nc2ccc(NC(=O)c3ccccc3F)cc2)c1 (stereo not shown) [Example 448] | – | – | – | >10 | 0 | 9 (≈ 22 µM) | >10 | –
Cc1ccc(NC(=S)Nc2ccc(NC(=O)c3ccccc3F)cc2)cc1C(F)(F)F [Example 1003, 2-Fluoro-N-{4-[3-(4-methyl-3-trifluoromethyl-phenyl)-thioureido]-phenyl}-benzamide] | > 10 | > 10 | > 10 | – | – | – | – | –
COc1cc(OC)c(NC(=S)Nc2ccc(NC(=O)c3ccccc3F)cc2Cl)cc1Cl [Example 355] | – | – | – | >10 | 40 | >10 | 0.035 (≈ 0.0708 µM) | –
Cc1cccc(C(C)NC(=S)Nc2ccc(NC(=O)c3ccccc3F)cc2)c1 (stereo not shown) [Example 776] | – | – | – | >7.5 | – | 0.9 (≈ 2.21 µM) | >10 | –
